In patent US12655116B2, “Substituted isophthalic acid diamides” (Bayer Aktiengesellschaft, priority 2020, dated 2026):

Key:
[1] = tested on: AVEFA; test: Pre-emergence herbicidal action against AVEFA; assay type: in vivo, Avena fatua; conditions: Avena fatua, 504 h, pre-emergence
In short: (§1)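 Visual rating at 3 weeks vs untreated pots; 0–100% scale, 100% = plants died. Treatment: aqueous WP/EC spray onto covering soil, 600–800 l/ha, 0.2% wetter, seeds in sandy loam.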

[2] = tested on: HORMU; test: Pre-emergence herbicidal action against HORMU; assay type: in vivo, Hordeum murinum; conditions: Hordeum murinum, 504 h; 80 g/ha, pre-emergence
Description: Seeds of monocotyledonous and dicotyledonous weed plants and crop plants are laid out in sandy loam soil in wood-fiber pots and covered with soil. The compounds of the invention, formulated in the form of wettable powders (WP) or as emulsion concentrates (EC), are then applied to the surface of the covering soil in the form of an aqueous suspension or emulsion at a water application rate equivalent to 600 to 800 l/ha, with addition of 0.2% wetting agent. After the treatment, the pots are placed in a greenhouse and kept under good growth conditions for the trial plants. The damage to the test plants is scored visually after a test period of 3 weeks by comparison with untreated controls (herbicidal activity in percent (%): 100% activity=the plants have died, 0% activity=like control plants). […] The tables below illustrate, in an illustrative manner, the post-emergence herbicidal action of the compounds of the invention, the herbicidal activity being stated in percent.

[3] = tested on: STEME; test: Pre-emergence herbicidal action against STEME; assay type: in vivo, Stellaria media; conditions: Stellaria media, 504 h; for pest or weed control at 80 g/ha: dosage 80 g/ha
In short: as §1

[4] = tested on: ECHCG; test: Pre-emergence herbicidal action against ECHCG; assay type: in vivo, Echinochloa crus-galli; conditions: Echinochloa crus-galli, 504 h, 80 g/ha
In short: as §1

[5] = tested on: SETVI; test: Post-emergence herbicidal action against SETVI; assay type: in vivo, Setaria viridis; conditions: Setaria viridis, 504 h, dosage 20 g/ha
In short: (§2)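 Weeds in sandy loam soil received a post-emergence spray at the one-leaf stage. Compounds were applied as WP or EC in water, 600 to 800 l/ha, with 0.2% wetting agent. Activity in % was judged visually after roughly 3 weeks against untreated plants.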

[6] = tested on: ABUTH; test: Pre-emergence herbicidal action against ABUTH; assay type: in vivo, Abutilon theophrasti; conditions: Abutilon theophrasti, 504 h; for pest or weed control at 80 g/ha: scored visually after 3 weeks vs untreated controls (100% = plants have died, 0% = like control plants)
In short: as §1

[7] = tested on: MATIN; test: Pre-emergence herbicidal action against MATIN; assay type: in vivo, Matricaria inodora; conditions: Tripleurospermum inodorum, 504 h; for pest or weed control at 80 g/ha: dosage 80 g/ha
In short: as §1

[8] = tested on: ABUTH; test: Post-emergence herbicidal action against ABUTH; assay type: in vivo, Abutilon theophrasti; conditions: Abutilon theophrasti, 504 h, visual assessment about 3 weeks after treatment vs untreated controls; for pest or weed control at 5 g/ha: dosage 5 g/ha; for pest or weed control at 20 g/ha: dosage 20 g/ha
In short: as §2

[9] = tested on: AMARE; test: Post-emergence herbicidal action against AMARE; assay type: in vivo, Amaranthus retroflexus; conditions: Amaranthus retroflexus, 504 h, 20 g/ha, visual assessment about 3 weeks after treatment, 100% = plants have died, 0% = like control plants
In short: as §2

[10] = tested on: ALOMY; test: Pre-emergence herbicidal action against ALOMY; assay type: in vivo, Alopecurus myosuroides; conditions: Alopecurus myosuroides, 504 h; 80 g/ha, pre-emergence, scored visually after 3 weeks vs untreated controls (100% = plants have died, 0% = like control plants)
In short: as §1

[11] = tested on: DIGSA; test: Pre-emergence herbicidal action against DIGSA; assay type: in vivo, Digitaria sanguinalis; conditions: Digitaria sanguinalis, 504 h, dosage 80 g/ha
In short: as §1

[12] = tested on: VERPE; test: Pre-emergence herbicidal action against VERPE; assay type: in vivo, Veronica persica; conditions: Veronica persica, 504 h
In short: as §1

[13] = tested on: ECHCG; test: Post-emergence herbicidal action against ECHCG; assay type: in vivo, Echinochloa crus-galli; conditions: Echinochloa crus-galli, 504 h, dosage 20 g/ha
In short: as §2

[14] = tested on: ALOMY; test: Post-emergence herbicidal action against ALOMY; assay type: in vivo, Alopecurus myosuroides; conditions: Alopecurus myosuroides, 504 h, dosage 20 g/ha, visual assessment about 3 weeks after treatment vs untreated controls
In short: as §2

[15] = tested on: STEME; test: Post-emergence herbicidal action against STEME; assay type: in vivo, Stellaria media; conditions: Stellaria media, 504 h
In short: as §2

[16] = tested on: AMARE; test: Pre-emergence herbicidal action against AMARE; assay type: in vivo, Amaranthus retroflexus; conditions: Amaranthus retroflexus, 504 h, scored visually after 3 weeks vs untreated controls, 100% = plants have died, 0% = like control plants
In short: as §1

[17] = tested on: DIGSA; test: Post-emergence herbicidal action against DIGSA; assay type: in vivo, Digitaria sanguinalis; conditions: Digitaria sanguinalis, 504 h
In short: as §2

[18] = tested on: AVEFA; test: Post-emergence herbicidal action against AVEFA; assay type: in vivo, Avena fatua; conditions: Avena fatua, 504 h, 20 g/ha, visual assessment about 3 weeks after treatment, 100% = plants have died, 0% = like control plants
In short: as §2

[19] = tested on: SETVI; test: Pre-emergence herbicidal action against SETVI; assay type: in vivo, Setaria viridis; conditions: Setaria viridis, 504 h, dosage 80 g/ha
In short: as §1

[20] = tested on: VIOTR; test: Post-emergence herbicidal action against VIOTR; assay type: in vivo, Viola tricolor; conditions: Viola tricolor, 504 h, 20 g/ha
In short: as §2

[21] = tested on: VIOTR; test: Pre-emergence herbicidal action against VIOTR; assay type: in vivo, Viola tricolor; conditions: Viola tricolor, 504 h
In short: as §1

[22] = tested on: POLCO; test: Pre-emergence herbicidal action against POLCO; assay type: in vivo, Polygonum convolvulus; conditions: Fallopia convolvulus, 504 h
In short: as §1

[23] = tested on: MATIN; test: Post-emergence herbicidal action against MATIN; assay type: in vivo, Matricaria inodora; conditions: Tripleurospermum inodorum, 504 h
In short: as §2

[24] = tested on: PHBPU; test: Post-emergence herbicidal action against PHBPU; assay type: in vivo, Pharbitis purpurea; conditions: Ipomoea purpurea, 504 h
In short: as §2

CNC(=O)c1c(Cl)ccc(C(=O)Nc2nnnn2C)c1C [Example 1-4]
pest or weed control at 80 g/ha [1]: 90%
pest or weed control at 80 g/ha [2]: 80%
pest or weed control at 80 g/ha [3]: 90%
pest or weed control at 80 g/ha [4]: 90%
pest or weed control at 20 g/ha [5]: 80%
pest or weed control at 80 g/ha [6]: 100%
pest or weed control at 80 g/ha [7]: 100%
pest or weed control at 5 g/ha [8]: 90%
pest or weed control at 20 g/ha [8]: 90%
pest or weed control at 20 g/ha [9]: 90%
pest or weed control at 80 g/ha [10]: 80%
pest or weed control at 80 g/ha [11]: 100%
pest or weed control at 20 g/ha ([12]; dosage 20 g/ha): 80%
pest or weed control at 80 g/ha ([12]; dosage 80 g/ha): 90%
pest or weed control at 20 g/ha [13]: 100%
pest or weed control at 20 g/ha [14]: 80%
pest or weed control at 20 g/ha [15]: 90%
pest or weed control at 5 g/ha ([15]; dosage 5 g/ha): 80%
pest or weed control at 20 g/ha [16]: 90%
pest or weed control at 80 g/ha [16]: 100%
pest or weed control at 5 g/ha ([17]; 5 g/ha): 80%
pest or weed control at 20 g/ha ([17]; 20 g/ha): 90%
pest or weed control at 20 g/ha [18]: 80%
pest or weed control at 80 g/ha [19]: 100%

CCCn1nnnc1NC(=O)c1ccc(C(F)(F)F)c(C(=O)NCC)c1C [Example 3-26]
pest or weed control at 80 g/ha [1]: 100%
pest or weed control at 20 g/ha ([1]; 20 g/ha, scored visually after 3 weeks, 100% = plants have died, 0% = like control plants): 80%
pest or weed control at 80 g/ha [2]: 80%
pest or weed control at 20 g/ha ([3]; dosage 20 g/ha): 80%
pest or weed control at 80 g/ha [3]: 100%
pest or weed control at 80 g/ha [6]: 100%
pest or weed control at 20 g/ha ([6]; dosage 20 g/ha, scored visually after 3 weeks vs untreated controls, 100% = plants have died, 0% = like control plants, read-out: Pre-emergence action against ABUTH (herbicidal activity in percent)): 100%
pest or weed control at 20 g/ha ([7]; dosage 20 g/ha): 90%
pest or weed control at 80 g/ha [7]: 100%
pest or weed control at 20 g/ha [20]: 90%
pest or weed control at 20 g/ha ([21]; dosage 20 g/ha): 100%
pest or weed control at 80 g/ha ([21]; dosage 80 g/ha): 100%
pest or weed control at 5 g/ha [8]: 80%
pest or weed control at 20 g/ha [8]: 90%
pest or weed control at 20 g/ha [9]: 90%
pest or weed control at 20 g/ha ([22]; dosage 20 g/ha): 80%
pest or weed control at 80 g/ha ([22]; dosage 80 g/ha): 90%
pest or weed control at 5 g/ha ([23]; dosage 5 g/ha): 90%
pest or weed control at 20 g/ha ([23]; dosage 20 g/ha): 90%
pest or weed control at 80 g/ha [10]: 80%
pest or weed control at 80 g/ha [11]: 100%
pest or weed control at 20 g/ha [14]: 80%
pest or weed control at 20 g/ha [15]: 90%
pest or weed control at 20 g/ha [16]: 100%
pest or weed control at 80 g/ha [16]: 100%
pest or weed control at 5 g/ha ([24]; dosage 5 g/ha): 80%
pest or weed control at 20 g/ha ([24]; dosage 20 g/ha): 90%
